Entries after “also recorded” stand apart in the source; their conditions may differ. Where two headings read alike, the source gives them in different places.
What was measured:
[1] = system: MeCP2 S421 phosphorylation; assay: KCl-induced MeCP2 S421 phosphorylation, immunoblot, hippocampal cultures; assay type: cell-based, rat
Description: (§1) Nuclei were isolated as previously described (81). […] Blots were incubated with the following primary antibodies: MeCP2 (S421) (1:1000) and total-MeCP2 (1:1000, kind gifts from Dr. Michael Greenberg, Harvard Medical School), phospho-CaMKII (T286) (1:250, Cell Signaling), pan-CaMKII (1:250, Cell Signaling), ([…] (1:5000, Sigma), and lamin A/C (1:1000, Cell Signaling).

[2] = system: CaMKII T286 phosphorylation; assay type: cell-based
Description: as §1

[3] = system: MeCP2 S421 phosphorylation; assay: KA-induced MeCP2 S421 phosphorylation, immunoblot, cortical E18+10DIV cultures; assay type: cell-based, rat; conditions: Ctx
Description: as §1

[4] = system: MeCP2 S421 phosphorylation; assay: In vivo hypoxic seizure (HS)-induced MeCP2 S421 phosphorylation in P10 rats; parameters: species or system rat; conditions: for MeCP2 S421 phosphorylation 3 hrs post-HS: P10 rats, normalized to mean C+V control (100±8%), HS+V 157±11%, 20 mg/kg NBQX, 20 mg/kg IEM-1460, nimodipine 10 mg·kg, i.p.; for Baseline MeCP2 phosphorylation in control rats: control rats without HS
Description: as §1

[5] = system: MeCP2 S421 phosphorylation; assay: KCl-induced MeCP2 S421 phosphorylation, immunoblot, cortical cultures; assay type: cell-based, rat
Description: as §1

[6] = system: MeCP2 S421 phosphorylation; assay: KA-induced MeCP2 S421 phosphorylation, immunoblot, hippocampal E18+10DIV cultures; assay type: cell-based, rat; conditions: H
Description: as §1

[7] = system: hippocampal CA1 AMPAR function, silent synapses, LTP; assay: Hippocampal slice electrophysiology after P10 hypoxic seizures, post-seizure treatment; assay type: in vivo, rat
Description: FIG. 23 ELS induce altered hippocampal CA1 AMPAR function, silent synapses, and synaptic plasticity. Hippocampal brains slices removed at 48-72 h after P10 hypoxic seizures (HS) cause (A) enhanced AMPAR-mediated sEPSCs, (B) inwardly rectifying AMPAR eEPSCs, and (C) a precocious loss of silent synapses indicated by both decreased failure rates and silent synapse fraction. These changes yield attenuated synaptic plasticity both in early-life and as adults: (D) reduced eEPSC amplitude in post-HS 48-72 hrs from whole-cell LTP pairing protocol; (E,F) decreased potentiation from extracellular LTP recordings.

[8] = system: hypoxic seizure (HS) model; conditions: post-seizure in vivo treatment; previously shown (6, 12); cited from earlier work
[9] = system: E18+10DIV cultured cortical neurons; assay: Fura-2 ratiometric Ca2+ imaging of KA-induced Ca2+ influx, cortical cultures; assay type: cell-based, rat; conditions: cortex
Description: (§2) Ratiometric Ca^2+ imaging was performed on E17/18+10 DIV hippocampal and cortical cultures, plated at 1×10^5 cells/well in 24 well plates. […] After 10 min bathed in 100 μM D-APV (Tocris), cells were stimulated using fast (<2 min) bath application of 30 μM kainate (KA). […] Changes in Ca^2+ influx were assessed by change in 340/380 nm excitation ratio from baseline in individual somas (using regions of interests) in NisElements software (see Supp. Methods).

[10] = system: primary auditory cortex (AI) silent synapses; assay: PTZ-ELS auditory cortex critical period plasticity; assay type: in vivo; conditions: PTZ P9-11; 1 dose following seizure induction each day
[11] = system: CaMKII phosphorylation; assay: In vivo hypoxic seizure-induced CaMKII phosphorylation; conditions: HS model
Description: as §1

[12] = system: tdTom+ cells; assay: tdTom+ cell labelling after PTZ seizures at P9-11 in FosTRAP mice; assay type: in vivo, mouse; conditions: NBQX 1 hr post PTZ stage 5 seizures; preliminary cohort n=3/group
Description: Seizures will be induced as described above. For the KA model, beginning 1 hour after KA seizure, mice will receive doses of either NBQX (20 mg/kg i.p.), […] IEM 1460 (10 mg/kg i.p.), or saline every 12 hrs×4 doses as per prior protocols with ELS. For the PTZ model, we will follow our prior protocol, and deliver the NBQX (20 mg/kg i.p.), IEM 1460 (10 mg/kg i.p.) or saline at 1 hr post seizure on P9, P10, and […] (FIG. 33). Mice will be euthanized at P15, P30, or P60. Two sets of groups will be prepared (n=12/group): the first for perfusion and subsequent IHC to determine whether treatment decreases the number of tdTom+ cells. Confocal imaging of at least 2 fields/section and 3 sections/mouse in defined areas of hippocampal CA subfields and dentate gyrus (hippocampus: Bregma −1.46 to −2.70 mm (interaural 2.34 mm-1.1 mm) or primary auditory cortex (Bregma −2.18 mm to −3.64 mm (interaural 1.5 mm to 0.16 mm) will be used. MAP2, Iba-1, GFAP, and GAD67 will be used to confirm cell identity. Cell counts will be performed using ImageJ software and group differences analyzed by 2-way ANOVA/Bonferroni correction. Multivariate linear and logistic regression will be used to evaluate effects of age, gender, treatment groups and seizure severity in ELS. […]

[13] = system: E18+10DIV cultured hippocampal neurons; assay: Fura-2 ratiometric Ca2+ imaging of KA-induced Ca2+ influx, hippocampal cultures; assay type: cell-based, rat; conditions: hippocampus
Description: as §2

[14] = system: CDKL5 R59X mouse; assay: Behaviour of CDKL5 R59X mice after acute in vivo treatment
[15] = system: GluA2-lacking AMPAR; assay: AMPAR eEPSC currents in CDKL5 R59X mouse model; assay type: cell-based
[16] = system: PTZ-induced seizures; conditions: in vivo; cited from earlier work
[17] = KA 100 μM, in the presence of APV, NBQX, NASPM 150 μM, nimodipine 5 μM
[18] = KA-induced, 5 μM KN93, KN92 5 μM, EGTA 1 mM
[19] = KA+APV plus NBQX 50 μM or NASPM 150 μM, vs. KA+APV condition (100±3%)
[20] = KA 100 μM, 100 μM D-APV alone, vs. KA, NaOH+DMSO treated controls

COCCOC(=O)C1=C(C)NC(C)=C(C(=O)OC(C)C)C1c1cccc([N+](=O)[O-])c1 (centres unmarked) [nimodipine]
KCl-mediated MeCP2 phosphorylation ([1]; H, in the presence of D-APV): 0±1%
KA-induced CaMKII phosphorylation ([2]; Ctx, in the presence of D-APV): 23±9%
KA-induced CaMKII phosphorylation ([2]; H, in the presence of D-APV): 33±6%
MeCP2 S421 phosphorylation [3, 17]: 4±1%
MeCP2 S421 phosphorylation 3 hrs post-HS [4]: 103±9%
KCl-mediated MeCP2 phosphorylation ([5]; Ctx, in the presence of D-APV): 10±6%
MeCP2 S421 phosphorylation [6, 17]: 21±6%

COc1ccc(S(=O)(=O)N(CCO)c2ccccc2CN(C)C/C=C/c2ccc(Cl)cc2)cc1 [KN93]
MeCP2 S421 phosphorylation [3, 18]: 10±3%
MeCP2 S421 phosphorylation [6, 18]: 3±1%

NS(=O)(=O)c1cccc2c1c([N+](=O)[O-])cc1nc(O)c(O)nc12 [NBQX]
KCl-mediated MeCP2 phosphorylation ([1]; H, in the presence of D-APV): 21±6%
KCl-induced phosphorylation of MeCP2 S421 ([1]; hippocampus, NBQX alone, p=0.0003): reversed
Impaired LTP ([7]; 48-72 hr post HS and as P60 adults): protects
Enhanced AMPAR function following ELS ([7]; post-seizure treatment): attenuates
Premature silent synapse loss ([7]; post-seizure treatment): reverses
Later-life seizures, altered synaptic plasticity, and autistic-like social deficits [8]: prevents
KA-induced CaMKII phosphorylation ([2]; Ctx, in the presence of D-APV): 18±4%
KA-induced CaMKII phosphorylation ([2]; H, in the presence of D-APV): 21±3%
MeCP2 S421 phosphorylation [3, 17]: 0±0.3%
Remaining NMDAR-insensitive Ca2+ influx [9, 19]: 3±2%
Subsequent A1 plasticity [10]: permits
Synapse unsilencing [10]: prevents
MeCP2 S421 phosphorylation 3 hrs post-HS [4]: 81±8%
Baseline MeCP2 phosphorylation in control rats [4]: did not affect
KCl-mediated MeCP2 phosphorylation ([5]; Ctx, in the presence of D-APV): 35±5%
KCl-induced phosphorylation of MeCP2 S421 ([5]; cortex, NBQX alone, p=0.0069): reversed
Seizure-induced CaMKII phosphorylation in vivo [11]: prevented
Number of tdTom+ cells [12]: decrease; also recorded: reduction
Remaining NMDAR-insensitive Ca2+ influx [13, 19]: 31±2%
MeCP2 S421 phosphorylation [6, 17]: 3±5%

CC(=O)OCOC(=O)CN(CCOCCOCCN(CC(=O)OCOC(C)=O)CC(=O)OCOC(C)=O)CC(=O)OCOC(C)=O [EGTA-AM]
Phosphorylation of MeCP2 S421 ([3]; 100 μM EGTA-AM, p=0.0001): reduced
Phosphorylation of MeCP2 S421 ([6]; 100 μM EGTA-AM, p=0.0057): reduced

COc1ccc(S(=O)(=O)Nc2ccccc2CN(C)C/C=C/c2ccc(Cl)cc2)cc1 [KN92]
MeCP2 S421 phosphorylation [3, 18]: 99±3%
MeCP2 S421 phosphorylation [6, 18]: 97±3%

NCCCNCCCCNCCCNC(=O)Cc1cccc2ccccc12 [NASPM, 1-Napthylacetyl Spermine]
KCl-mediated MeCP2 phosphorylation ([1]; H, in the presence of D-APV): 11±6%
KA-induced CaMKII phosphorylation ([2]; Ctx, in the presence of D-APV): 25±5%
KA-induced CaMKII phosphorylation ([2]; H, in the presence of D-APV): 28±7%
MeCP2 S421 phosphorylation [3, 17]: 12±2%
KCl-mediated MeCP2 phosphorylation ([5]; Ctx, in the presence of D-APV): 32±13%
MeCP2 S421 phosphorylation [6, 17]: 30±9%

N[C@H](CCCP(=O)(O)O)C(=O)O [D-APV]
KCl-mediated MeCP2 phosphorylation ([1]; hippocampal neurons, 10 DIV, D-APV alone): 73±21%
KA-induced CaMKII phosphorylation ([2]; Ctx, pre-treatment with D-APV alone): 81±11%
KA-induced CaMKII phosphorylation ([2]; H, pre-treatment with D-APV alone): 86±9%
MeCP2 S421 phosphorylation [3, 20]: 76±13%
KA-induced Ca2+ influx, normalized mean peak ratio ([9]; KA 30 μM, D-APV 100 μM, normalized to KA only (100±2%)): 74±3%
KCl-mediated MeCP2 phosphorylation ([5]; cortical neurons, 10 DIV, D-APV alone): 87±21%
KA-induced Ca2+ influx, normalized mean peak ratio ([13]; KA 30 μM, D-APV 100 μM, normalized to KA only (100±3%)): 73±3%
MeCP2 S421 phosphorylation [6, 20]: 89±13%

O=C(O)CN(CCOCCOCCN(CC(=O)O)CC(=O)O)CC(=O)O [EGTA]
MeCP2 S421 phosphorylation [3, 18]: 72±7%
MeCP2 S421 phosphorylation [6, 18]: 66±7%

Br.C[N+](C)(C)CCCCCNCC12CC3CC(CC(C3)C1)C2.[Br-] [IEM-1460]
Activity-dependent MeCP2 phosphorylation in cultured neurons in vitro ([3]; p<0.0049, stimulus and concentration not stated): reduced
MeCP2 S421 phosphorylation 3 hrs post-HS [4]: 106±11%
Baseline MeCP2 phosphorylation in control rats [4]: did not affect
Seizure behavior latency [14]: rescued
Autistic like impairment in social behavior / social deficits ([14]; acute in vivo treatment): rescued; also recorded: improves
Spatial and temporal working memory in Y maze (% spontaneous alternating behavior) ([14]; acute in vivo treatment): rescued; also recorded: improves
Enhanced AMPAR currents [15]: decreased; also recorded: attenuated
Seizure-induced CaMKII phosphorylation in vivo [11]: prevented
Activity-dependent MeCP2 phosphorylation in cultured neurons in vitro ([6]; p<0.0361, stimulus and concentration not stated): reduced
Effect in PTZ-induced seizures [16]: anti-seizure effects

Source: patent US20220047532A1, “AMPA RECEPTOR ANTAGONISTS SPECIFIC FOR CALCIUM PERMEABLE AMPA RECEPTORS AND METHODS OF TREATMENT THEREWITH” (priority 2018, published 2022)
